This is an account of results in ChEMBL document CHEMBL1201862, “PubChem BioAssay data set” (2004).

Test systems include T47D; CCRF-CEM; UACC-257; CAKI-1; MDA-MB-231; TK-10; NCI-H23; SW-620; HOP-92; OVCAR-3; NCI-H522; BT-549; UO-31; HCT-116; HCT-15; RPMI-8226; 786-0; OVCAR-5; M14.
Test in all cases: NCI-60 cell line screen, 48 h

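In this assay, cells in 96-well plates receive the compound at five concentrations for 48 hours. Endpoints are linearly interpolated between the surrounding concentrations. Here, GI50 denotes the concentration required for 50% inhibition of growth.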 Active and inactive are the calls of the source. Cut-off read from the data, not from the text of the source: active = GI50 up to about 1.1 µM and inactive = higher.

With `CCCC(=O)OCC1OC(n2cc(F)c(=O)[nH]c2=O)C(F)C1O` (centres undefined), the GI50 is > 100 µM (inactive) in the assay on T47D; 2.24 µM (inactive) in the assay with CCRF-CEM; > 59.7 µM (inactive) in the assay on UACC-257; > 10 µM (inactive) in the assay on CAKI-1; 38.1 µM (inactive) in the assay on MDA-MB-231; > 100 µM (inactive) in the assay with TK-10. Moreover, the GI50 in the assay on NCI-H23 was > 88.7 µM (inactive); in the assay with SW-620, > 100 µM (inactive); with HOP-92, > 100 µM (inactive); with OVCAR-3, 31 µM (inactive); in the assay on NCI-H522, > 75 µM (inactive); with BT-549, 13.9 µM (inactive). The GI50 with UO-31 was 74.8 µM (inactive); in the assay on HCT-116, > 22.4 µM (inactive); in the assay with HCT-15 it was above 84.7 µM; in the assay on RPMI-8226, 6.3 µM (inactive); in the assay on 786-0, 30.6 µM (inactive); in the assay on OVCAR-5, > 100 µM (inactive). In addition, in the assay with M14, the GI50 was 18.8 µM (inactive).
Take `CC1(C)CC[C@]2(C(=O)O)CC[C@]3(C)C(=CC[C@@H]4[C@@]5(C)C[C@H](O)[C@H](O)[C@@](C)(C(=O)O)[C@@H]5CC[C@]43C)[C@@H]2C1`: the GI50 in the assay with T47D, in the assay on CCRF-CEM, in the assay with UACC-257, with CAKI-1, in the assay with MDA-MB-231 and in the assay with TK-10 was > 100 µM (inactive) each time. In addition, the GI50 in the assay with NCI-H23, in the assay with SW-620, with HOP-92, in the assay on OVCAR-3, in the assay on NCI-H522 and in the assay with BT-549 was > 100 µM (inactive) in each case. Moreover, the GI50 in the assay with UO-31 is > 100 µM (inactive); in the assay on HCT-116, > 100 µM (inactive); in the assay on HCT-15, above 100 µM; with RPMI-8226, > 86.9 µM (inactive); in the assay on 786-0 it was > 100 µM (inactive); in the assay with OVCAR-5 it was > 100 µM (inactive). Also, the GI50 in the assay on M14 was > 100 µM (inactive).
With `COC(=O)NCCc1n[nH]c2c1C(=O)C=C(Nc1ccccc1OC)C2=O`, the GI50 is 30.1 µM (inactive) in the assay with T47D; 30.1 µM (inactive) in the assay with CCRF-CEM; 17 µM (inactive) in the assay with UACC-257; 33.9 µM (inactive) in the assay with CAKI-1; 27 µM (inactive) with MDA-MB-231; 53.7 µM (inactive) in the assay with TK-10. Moreover, the GI50 in the assay with NCI-H23 is 16 µM (inactive); in the assay with SW-620, 20.8 µM (inactive); in the assay with HOP-92 it was 41.7 µM (inactive); in the assay with OVCAR-3 it was 7.64 µM (inactive); in the assay on NCI-H522, 24.1 µM (inactive); in the assay with BT-549, 25 µM (inactive). Further, the GI50 is 42.2 µM (inactive) with UO-31; 18.9 µM (inactive) in the assay with HCT-116; 28.4 µM with HCT-15; 20.5 µM (inactive) in the assay with RPMI-8226; 38 µM (inactive) with 786-0; 61.4 µM (inactive) in the assay with OVCAR-5. Besides, the GI50 in the assay with M14 was 16.2 µM (inactive).
For `O=C1C=C(c2ccccc2)OC1C1Sc2ccccc2NC1=O` (centres undefined), the GI50 was 10.4 µM (inactive) in the assay on T47D; 6.43 µM (inactive) in the assay with CCRF-CEM; 7.6 µM (inactive) in the assay on UACC-257; 11.6 µM (inactive) in the assay with CAKI-1; 10.9 µM (inactive) in the assay with MDA-MB-231; 9.23 µM (inactive) in the assay on TK-10. In addition, the GI50 in the assay on NCI-H23 was 3.77 µM (inactive); in the assay on SW-620, 9.23 µM (inactive); in the assay with HOP-92, 9.68 µM (inactive); with OVCAR-3 it was 3.97 µM (inactive); in the assay on NCI-H522 it was 6.85 µM (inactive); in the assay on BT-549, 14.6 µM (inactive). Further, the GI50 is 7.26 µM (inactive) in the assay on UO-31; 4.5 µM (inactive) in the assay on HCT-116; 12.7 µM in the assay on HCT-15; 3.66 µM (inactive) with RPMI-8226; 5.83 µM (inactive) in the assay with 786-0; 13.8 µM (inactive) in the assay with OVCAR-5. For the same compound, the GI50 in the assay on M14 was 8.67 µM (inactive).
With `CC(=O)OCc1ccc2oc(=O)c(C(=O)Oc3ccccc3)cc2c1`, the GI50 with T47D is 17.6 µM (inactive); in the assay with CCRF-CEM it was > 100 µM (inactive); in the assay with UACC-257, > 100 µM (inactive); in the assay with CAKI-1, 20 µM (inactive); with MDA-MB-231, 27.8 µM (inactive); in the assay on TK-10, 23.8 µM (inactive). Besides, the GI50 was 32.6 µM (inactive) in the assay with NCI-H23; 32.9 µM (inactive) with SW-620; 20.3 µM (inactive) in the assay on HOP-92; > 100 µM (inactive) in the assay on OVCAR-3; > 100 µM (inactive) with NCI-H522; > 100 µM (inactive) in the assay with BT-549. The GI50 in the assay with UO-31 was 35.2 µM (inactive); with HCT-116 it was 15.6 µM (inactive); in the assay with HCT-15, 19.5 µM; with RPMI-8226, > 100 µM (inactive); with 786-0, 20.3 µM (inactive); in the assay with OVCAR-5 it was > 100 µM (inactive). The GI50 in the assay on M14 was > 100 µM (inactive).
As for `Cc1ccc(/N=C2N=C(Cl)/C(=C\c3ccco3)N\2)cc1`, the GI50 in the assay on T47D, with CCRF-CEM, with UACC-257, with CAKI-1, with MDA-MB-231 and with TK-10 was > 100 µM (inactive) in each case. Also, the GI50 in the assay with NCI-H23, with SW-620, in the assay with HOP-92, with OVCAR-3, in the assay with NCI-H522 and in the assay on BT-549 was > 100 µM (inactive) each time. For the same compound, the GI50 in the assay on UO-31 is > 100 µM (inactive); in the assay on HCT-116, > 100 µM (inactive); in the assay on HCT-15 it was above 100 µM; in the assay on RPMI-8226, > 87.1 µM (inactive); in the assay on 786-0, > 100 µM (inactive); with OVCAR-5 it was > 100 µM (inactive). Besides, the GI50 in the assay on M14 is > 100 µM (inactive).
In the case of `O=C(O)c1nnsc1COCc1ccccc1`, the GI50 in the assay with T47D, in the assay with CCRF-CEM, in the assay with UACC-257, in the assay with CAKI-1, in the assay with MDA-MB-231 and in the assay on TK-10 was > 100 µM (inactive) each time. Besides, the GI50 in the assay with NCI-H23, with SW-620, with HOP-92, with OVCAR-3, in the assay with NCI-H522 and in the assay with BT-549 was > 100 µM (inactive) in each case. The GI50 is > 100 µM (inactive) in the assay on UO-31; > 100 µM (inactive) with HCT-116; above 100 µM with HCT-15; > 100 µM (inactive) in the assay on RPMI-8226; > 100 µM (inactive) with 786-0; > 100 µM (inactive) in the assay on OVCAR-5. In the assay with M14, the GI50 was > 100 µM (inactive).
Take `NC(=S)N/N=C\c1nccc2ccccc12`: the GI50 with T47D is 2.69 µM (inactive); with CCRF-CEM it was 0.27 µM (active); in the assay on UACC-257 it was 1.42 µM (inactive); in the assay with CAKI-1, 0.33 µM (active); in the assay on MDA-MB-231 it was 0.46 µM (active); in the assay on TK-10 it was 0.551 µM (active). Moreover, the GI50 with NCI-H23 was 0.314 µM (active); with SW-620, 0.561 µM (active); in the assay on HOP-92 it was 0.264 µM (active); in the assay on OVCAR-3, 0.281 µM (active); with NCI-H522, 0.908 µM (active); with BT-549, 0.424 µM (active). The GI50 was 0.36 µM (active) in the assay on UO-31; 0.44 µM (active) in the assay with HCT-116; 0.369 µM in the assay with HCT-15; 0.267 µM (active) in the assay on RPMI-8226; 0.29 µM (active) in the assay with 786-0; 0.264 µM (active) with OVCAR-5. Further, the GI50 in the assay with M14 was 0.383 µM (active).
For the compound `CC(NNC(=O)c1cc[n+]([BH2-]C#N)cc1)C(F)(F)F` (centres undefined), the GI50 in the assay on T47D, in the assay with CCRF-CEM, in the assay on UACC-257, in the assay on CAKI-1, with MDA-MB-231 and in the assay with TK-10 was > 100 µM (inactive) in each case. The GI50 in the assay with NCI-H23, in the assay on SW-620, in the assay with HOP-92, in the assay on OVCAR-3, with NCI-H522 and with BT-549 was > 100 µM (inactive) in each case. Moreover, the GI50 was > 100 µM (inactive) with UO-31; > 100 µM (inactive) in the assay with HCT-116; above 100 µM in the assay on HCT-15; > 100 µM (inactive) in the assay with RPMI-8226; > 100 µM (inactive) in the assay on 786-0; > 100 µM (inactive) with OVCAR-5. In the assay with M14, the GI50 is > 100 µM (inactive).
As to `COC(=O)CC(C#N)(OP1(=O)OC(c2ccccc2)C(C)N1C)c1ccccc1` (centres undefined), the GI50 with T47D was 28.1 µM (inactive); with CCRF-CEM, 11.5 µM (inactive); with UACC-257, 20.6 µM (inactive); with CAKI-1, 25.4 µM (inactive); in the assay on MDA-MB-231, 42.4 µM (inactive); in the assay with TK-10, 29 µM (inactive). The GI50 in the assay with NCI-H23 is 31.5 µM (inactive); in the assay on SW-620, 17.3 µM (inactive); with HOP-92, 32.3 µM (inactive); with OVCAR-3, 18.8 µM (inactive); in the assay with NCI-H522, 59 µM (inactive); with BT-549, 36.2 µM (inactive). Moreover, the GI50 was 12.1 µM (inactive) in the assay with UO-31; 24.2 µM (inactive) in the assay with HCT-116; 28.6 µM in the assay on HCT-15; 25.1 µM (inactive) in the assay on RPMI-8226; 24 µM (inactive) with 786-0; 27.4 µM (inactive) in the assay with OVCAR-5. The GI50 in the assay with M14 was 31.3 µM (inactive).
`CN(C)Cc1cc(C(=O)/C=C/c2ccccc2)cc(CN(C)C)c1O`: the GI50 with T47D is 30.8 µM (inactive); with CCRF-CEM, 19.4 µM (inactive); in the assay with UACC-257, 13.3 µM (inactive); in the assay with CAKI-1, 36.1 µM (inactive); in the assay on MDA-MB-231 it was 21.9 µM (inactive); with TK-10, 37.3 µM (inactive). Also, the GI50 in the assay on NCI-H23 is 28.1 µM (inactive); in the assay on SW-620, 18.2 µM (inactive); in the assay on HOP-92, 26.7 µM (inactive); with OVCAR-3 it was 18.7 µM (inactive); with NCI-H522 it was 19.5 µM (inactive); in the assay with BT-549, 19.9 µM (inactive). The GI50 with UO-31 was 17.5 µM (inactive); in the assay on HCT-116, 19.7 µM (inactive); in the assay with HCT-15 it was 30.3 µM; in the assay with RPMI-8226, 11.8 µM (inactive); in the assay with 786-0, 30.1 µM (inactive); in the assay with OVCAR-5 it was 87.5 µM (inactive). The GI50 in the assay on M14 was 20.7 µM (inactive).
